Publication PMC5762859, “Distribution analysis of epertinib in brain metastasis of HER2-positive breast cancer by imaging mass spectrometry and prospect for antitumor activity” (Scientific Reports, 2018)
Read-outs that look alike come from different tables or passages of the source.

Assays:
[1] = system: experimental brain metastasis of HER2-positive breast cancer (IVM); assay: Antitumor activity in the breast cancer IVM (bioluminescence); type: in vivo, mice; details: once daily oral 50 mg/kg, 30 days, photons emitted from tumor
Excerpt: (§1) We evaluated the inhibitory activity of epertinib on the in vitro growth of the parental cell line, MDA-MB-361. […] To compare the growth inhibitory activity of epertinib on the parental and metastatic (BR2) cell lines, we evaluated the antitumor activity of epertinib in both cell lines. […] To confirm the antitumor activity of epertinib in the IVM, we examined the effect of epertinib on the IVM transplanted BR2.
(§2) Figure 6 In vivo antitumor activity of epertinib in the breast cancer IVM. Epertinib inhibits the growth of breast cancer in animal models. In each animal model, vehicle or indicated doses of epertinib were orally administered daily. Tumor volume was measured twice or thrice weekly and the mean tumor volume with SD is represented by each data point. Human breast cancer cells, MDA-MB-361 (A) or MDA-MB-361-luc-BR2 (B) was implanted orthotopically into the mammary fat pad of mice. Tumor-bearing mice were treated for 28 days (A and B). Tumor growth in the breast cancer IVM ([…]) was monitored by the photons emitted from the tumor as an indicator, which was measured with an IVIS Imaging System 200 (Caliper Life Sciences). […] The photons were measured once or twice weekly and the mean photons/sec with SD are presented at each data point (n = 3 for vehicle, n = 4 for 50 mg/kg of epertinib) (C). […]

EGFR = system: EGFR; design: method as in PMID 24837299; details: cited from earlier work
P-glycoprotein (P-gp) [2] = target: T1, P-glycoprotein (P-gp) (Homo sapiens, UniProt P08183); assay: P-gp substrate assessment; type: in vitro ADME; details: from permeability and efflux ratio across Caco-2 cell monolayers
T1 construct: permeability and efflux ratio of epertinib across Caco-2 cell monolayers; endogenous in cells; host or cells: Caco-2

MDA-MB-361 = assay: Mammary fat pad implantation model, antitumor activity; type: in vivo, mice; details: Mus musculus, 672 h; MDA-MB-361 in mammary fat pad, oral daily for 28 days
Excerpt: as §1, §2

MDA-MB-361-luc-BR2 = assay: as above; type: in vivo, mice; details: Mus musculus, 672 h; BR2 in mammary fat pad, oral daily for 28 days
Excerpt: as §1, §2

[3] = Plasma radioactivity and epertinib after single oral [14C]-epertinib hydrochloride in rats; type: in vivo
Excerpt: We used quantitative IMS to analyze and compare the distribution of epertinib and lapatinib in brain metastasis. IMS can simultaneously detect diverse molecules and obtain spatial distribution information capable of distinguishing between a drug and its metabolites in tissue sections[21],[35]. Historically, drug metabolism and pharmacokinetic studies have used radiolabels to perform autoradiography and obtain information about tissue distribution. Previously, plasma concentrations of radioactivity and epertinib were determined after a single oral administration of [^14C]-epertinib hydrochloride at a dose of 5 mg/kg (as epertinib) in rats (Supplementary Fig. S3). […] The AUC0–12 h and AUCinf values were 126 ± 18 and 392 ± 316 ng·h/mL, respectively. The plasma epertinib/radioactivity concentration ratio ranged from 10.9% to 16.2% through the measurable points, and the AUCinf ratio was ~20.8 ± 15.0%.
Supplementa ry Figure S3. Concentration of radioactivity and epertinib in plasma after single oral administration of [14C]-epertinib hydrochloride to non-f as ti ng male rats (dose: 5 mg as epertinib /kg)
Data ar e ex pressed as the mean values + SD o f fou r animals.
(1 picture or pasted object on this page, not shown here)

MDA-MB-361 cell line = assay: In vitro growth inhibition of parental cell line; type: cell-based; details: Homo sapiens
Excerpt: as §1

[4] = target: T2, breast cancer resistance protein (BCRP) (Homo sapiens, UniProt Q9UNQ0); assay: BCRP substrate assessment; type: in vitro ADME; details: from permeability and efflux ratio across Caco-2 cell monolayers
T2 construct: permeability and efflux ratio of epertinib across Caco-2 cell monolayers; endogenous in cells; host or cells: Caco-2
T2 sequence (Q9UNQ0 1-655): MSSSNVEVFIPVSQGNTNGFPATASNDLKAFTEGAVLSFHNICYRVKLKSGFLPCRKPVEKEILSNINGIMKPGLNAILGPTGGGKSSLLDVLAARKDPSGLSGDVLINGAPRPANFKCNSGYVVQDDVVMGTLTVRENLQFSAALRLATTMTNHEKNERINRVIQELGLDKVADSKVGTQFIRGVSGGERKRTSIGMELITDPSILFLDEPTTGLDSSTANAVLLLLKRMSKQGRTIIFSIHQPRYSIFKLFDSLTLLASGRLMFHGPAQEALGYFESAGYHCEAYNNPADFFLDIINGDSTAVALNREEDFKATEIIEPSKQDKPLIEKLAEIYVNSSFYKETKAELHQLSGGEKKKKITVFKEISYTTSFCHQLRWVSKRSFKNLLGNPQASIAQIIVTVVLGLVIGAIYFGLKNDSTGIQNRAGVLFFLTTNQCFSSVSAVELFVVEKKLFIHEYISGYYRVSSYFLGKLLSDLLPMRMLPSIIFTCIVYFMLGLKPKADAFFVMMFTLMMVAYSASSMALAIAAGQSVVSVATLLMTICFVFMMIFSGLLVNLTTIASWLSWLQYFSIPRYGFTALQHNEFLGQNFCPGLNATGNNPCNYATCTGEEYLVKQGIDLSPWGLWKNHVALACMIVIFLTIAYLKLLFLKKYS

[5] = system: albumin and α-1 acid glycoprotein; design: method as in PMID 25547867; details: cited from earlier work
[6] = system: HER2-positive metastatic breast cancer patients; details: historical data, combination with trastzumab; cited from earlier work
[7] = target: T2, breast cancer resistance protein (BCRP); details: cited from earlier work
P-glycoprotein (P-gp) [8] = target: T1, P-glycoprotein (P-gp); details: cited from earlier work
[9] = healthy volunteers, single oral 250 mg [14C]-lapatinib; cited from earlier work

T1 sequence (P08183 whole entry): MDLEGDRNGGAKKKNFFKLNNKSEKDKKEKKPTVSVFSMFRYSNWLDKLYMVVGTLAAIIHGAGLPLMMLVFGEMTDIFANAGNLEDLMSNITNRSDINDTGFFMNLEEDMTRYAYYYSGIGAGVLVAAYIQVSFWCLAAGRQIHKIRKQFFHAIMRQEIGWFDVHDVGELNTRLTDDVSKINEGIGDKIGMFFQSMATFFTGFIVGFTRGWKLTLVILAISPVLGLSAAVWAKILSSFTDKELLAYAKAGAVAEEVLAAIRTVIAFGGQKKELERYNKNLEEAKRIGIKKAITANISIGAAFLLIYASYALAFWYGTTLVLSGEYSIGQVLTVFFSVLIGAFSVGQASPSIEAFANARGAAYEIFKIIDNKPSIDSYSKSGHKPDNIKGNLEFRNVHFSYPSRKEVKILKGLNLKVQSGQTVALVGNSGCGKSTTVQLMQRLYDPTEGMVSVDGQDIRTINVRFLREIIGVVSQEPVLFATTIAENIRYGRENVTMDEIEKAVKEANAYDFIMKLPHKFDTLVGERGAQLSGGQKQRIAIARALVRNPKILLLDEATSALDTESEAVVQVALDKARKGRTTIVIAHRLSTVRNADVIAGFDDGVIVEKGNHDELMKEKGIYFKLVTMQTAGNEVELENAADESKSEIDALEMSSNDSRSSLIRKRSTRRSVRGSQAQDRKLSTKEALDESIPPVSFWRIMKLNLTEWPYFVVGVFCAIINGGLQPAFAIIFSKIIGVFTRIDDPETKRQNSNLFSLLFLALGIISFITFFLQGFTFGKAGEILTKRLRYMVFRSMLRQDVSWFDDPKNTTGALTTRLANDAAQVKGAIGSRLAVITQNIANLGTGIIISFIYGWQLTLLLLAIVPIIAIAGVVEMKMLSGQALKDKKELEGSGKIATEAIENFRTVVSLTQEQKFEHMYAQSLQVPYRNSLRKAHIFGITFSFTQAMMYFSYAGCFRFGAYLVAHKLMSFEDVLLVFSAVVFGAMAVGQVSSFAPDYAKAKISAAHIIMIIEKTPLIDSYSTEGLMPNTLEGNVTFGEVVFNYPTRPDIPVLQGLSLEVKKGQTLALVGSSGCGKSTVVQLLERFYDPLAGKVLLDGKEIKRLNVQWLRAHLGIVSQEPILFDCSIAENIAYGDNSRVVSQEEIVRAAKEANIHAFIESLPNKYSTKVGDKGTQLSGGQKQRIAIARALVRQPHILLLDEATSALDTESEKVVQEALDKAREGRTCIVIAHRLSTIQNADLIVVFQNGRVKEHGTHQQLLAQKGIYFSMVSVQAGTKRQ

SMILES	Effect on brain tumor volume [1]	Off-rate of dissociation compared with lapatinib (EGFR)	P-gp substrate (P-glycoprotein (P-gp) [2])	ED50 (MDA-MB-361) [mg/kg]	ED50 (MDA-MB-361-luc-BR2) [mg/kg]	Epertinib/radioactivity AUCinf ratio [3]	AUC(0-t) ([3]; male, rat, plasma, single oral 5 mg/kg [14C]-epertinib hydrochloride, read-out: AUC0–12 h of epertinib) [ng·h/mL]	AUC(0-inf) ([3]; male, rat, plasma, single oral 5 mg/kg [14C]-epertinib hydrochloride, read-out: AUCinf of epertinib) [ng·h/mL]	Cmax ([3]; male, rat, plasma, single oral 5 mg/kg [14C]-epertinib hydrochloride, read-out: Plasma concentration of epertinib, Cmax) [ng/mL]	Time of Cmax of plasma epertinib ([3]; single oral 5 mg/kg [14C]-epertinib hydrochloride) [h]	IC50 (MDA-MB-361 cell line) [nM]	BCRP substrate [4]	Binding to albumin and α-1 acid glycoprotein [5] [%]	Objective response rate (ORR) [6] [%]	BCRP substrate [7]	P-gp substrate (P-glycoprotein (P-gp) [8])	Mean plasma concentration of lapatinib at Cmax [9] [ng/mL]
CC#CC(=NOCC1COCCN1)c1ccc2ncnc(Nc3ccc(OCc4cccc(F)c4)c(Cl)c3)c2c1 (centres unmarked) [Epertinib]	significantly reduced the brain tumor volume	slower off-rate of dissociation	not a substrate	24.1	26.5	~ 20.8 ± 15.0%	126 ± 18	392 ± 316	14.1 ± 3.6	5.00 ± 1.15	26.5	not a substrate	–	–	–	–	–
CS(=O)(=O)CCNCc1ccc(-c2ccc3ncnc(Nc4ccc(OCc5cccc(F)c5)c(Cl)c4)c3c2)o1 [Lapatinib, N-{3-chloro-4-[(3-fluorobenzyl)oxy]phenyl}-6-[5-({[2-(methylsulfonyl)ethyl]amino}methyl)-2-furyl]-4-quinazolinamine, reference compound]	–	–	–	–	–	–	–	–	–	–	–	–	> 99.9	10.3	substrates	substrates	330
